Source: patent US9364462B2, “Alpha-1-adrenergic receptor agonist therapy” (The Regents of the University of California, priority 2012, dated 2016)

Experiments:
[1] = test system: adult mouse cardiac muscle cells; assay: Protection of adult mouse cardiac muscle cells against doxorubicin (DOX); format: cell-based
Excerpt: FIG. 3. A61603 protects adult cardiac muscle cells. In adult mouse cardiac muscle cells, A61603 at a low concentration activates ERK (left), and protects against a cardiotoxic cancer drug, (DOX) (right). These effects are not blocked by a beta-blocker, propranolol (Prop), which is current standard of care in heart failure therapy. That is, A61603 effects are additive to those of a beta-blocker. Knockout of the alpha-1A receptor (AKO) eliminates myocyte protection by A61603 (right), showing that the drug does indeed work through the alpha-1A, as expected.

[2] = 1 week subcutaneous infusion (osmotic minipump) in adult mice: BP and heart signaling; format: in vivo, mouse
Procedure: FIG. 5. A61603 activates heart signaling at a BP-neutral dose. A61603 was infused subcutaneously (osmotic minipump) for 1 week in adult mice, and BP was measured daily. There was no change in average BP at the low dose, in agreement with the intravenous (IV) route in another study, and with phenylephrine (PE) given in humans (left side). BP effects of A61603 are absent in the alpha-1A KO (AKO), again showing the selectivity of the drug for that receptor (left). At the end of 1 week, the heart was removed to measure ERK activation, and increases in heart mRNAs and area (size), reflecting protective (ERK) adaptive (mRNAs, area) effects on heart muscle cells. A61603 at the low dose of 10 ng/kg/d increased these endpoints.
The classic effect of alpha-1-agonists is to increase BP by stimulating smooth muscle cells to contract. It could be a disadvantage in heart failure (HF) therapy to increase BP excessively. On the other hand, all current recommended drugs in HF reduce BP, and a drug that increased BP slightly might have a strong therapeutic advantage. […] The foregoing experiments provided the rationale to test treatment with A61603 at 10 ng/kg/d in a mouse model of cardiomyopathy and HF.

[3] = Doxorubicin cardiomyopathy model in adult mice; format: in vivo, mouse
Procedure: FIG. 6. A61603 prevents doxorubicin cardiomyopathy. DOX was given to adult mice in a single intraperitoneal dose of 25 mg/kg. A61603 was infused subcutaneously (osmotic minipump) for 1 week (top left). We monitored mouse survival over the week, and at the end of 1 week measured heart cell damage and function.
In summary, the alpha-1A agonist A61603 is protective and adaptive in cardiac muscle cells in vitro and in vivo. […] A61603 protects against mortality and cardiomyopathy, by preventing cell death and fibrosis. We chose a model of cardiomyopathy caused by a cancer drug, the anthracycline doxorubicin (DOX). Cancer drug cardiotoxicity is a common and growing problem. We used the same protocol that tested A61603 BP and signaling effects (FIG. 5).

neurons in brain slices = assay: Adult mouse brain slices injured with H2O2 ex vivo; format: cell-based; settings: H2O2, 2 h
Procedure: FIG. 13. Brain slice model to study alpha-1A agonist in vitro. Thin brain slices were injured with hydrogen peroxide (H2O2), which simulates most forms of ischemic and traumatic injury at the cell level, in the presence or absence of A61603. After 2 hr, dead neurons (PI) and living neurons (ATP) were measured.
FIG. 14. A61603 protects neurons in brain slices from oxidative injury in vitro. Slices were treated with H2O2 or vehicle (Veh) for 2 hr, in the presence of A61603, or absence (Veh).
Studies were conducted in mice looking at alpha-1 agonist therapy, using A61603, in a model of traumatic brain injury. Alpha-1-ARs are 10 times more abundant in neurons than in cardiac myocytes, and the alpha-1A subtype is the most abundant. […]
Alpha-1A-adrenergic receptors (α1A-ARs) have a protective trophic role in the heart. α1A-AR levels are high in the brain, and neuroprotection by norepinephrine is known. […] Ex vivo, we quantified ATP levels (marker for survival) in mouse brain slices injured by 10μ, M H2O2 and treated for 2 h with A61603 (a1A-AR specific agonist) or Vehicle. We quantified the number of dead neurons (propidium iodide (PI) positive) out of total (NeuN positive) in the same treated slices by immunohistochemistry (IHC). In vivo, we measured brain infarct size (BrdU-positive glial cells) after transient focal ischemia and reperfusion (IR) in α1ABKO and WT mice. […]

[4] = Traumatic brain injury (TBI) by cortical impact, MRI; format: in vivo, mouse; settings: 4 weeks treatment, vs vehicle
Excerpt: FIG. 16. The alpha-1A agonist A61603 reduces the amount of brain damage after TBI, quantified by MRI. Mice had TBI by cortical impact, followed by 4 weeks treatment with A61603 or vehicle. MRI was done to identify viable brain (dark) and fluid-filled areas of lost brain tissue (bright) (left). The volume of dead brain was 50% less with A61603 (red, right).
To test this, we used a mouse model of traumatic brain injury (TBI), produced by a piston impact on the cerebral cortex, done through a hole in the skull. TBI is a clinical problem of great and growing importance.
We tested the model in the alpha-1A knockout (KO) mouse. TBI in the alpha-1A KO caused the worst damage, compared with normal mice and mice with the alpha-1B KO (FIG. 15). We tested A61603 in normal wild type mice, using the same low BP-neutral dose employed in the cardiac studies, 10 ng/kg/d. The protocol was a prevention trial, and the end-point was magnetic resonance imaging (MRI), which can quantify the amount of dead and viable brain tissue in the living subject (e.g. mouse, human) non-invasively. A61603 reduced the amount of dead brain tissue after TBI (FIG. 16).

## CS(=O)(=O)Nc1c(O)ccc2c1CCCC2C1=NCCN1 (stereo not shown) [A61603, N-[1-(4,5-dihydro-1H-imidazol-2-yl)-6-hydroxy-tetralin-5-yl]methanesulfonamide]
[1]; FIG. 3 right
  protection against cardiotoxic cancer drug (DOX): protects
[1]; with propranolol (Prop)
  ERK activation and DOX protection in presence of beta-blocker propranolol: not blocked
[2]; 10 ng/kg/d, end of 1 week
  heart ERK activation: increased
  heart area (size): increased
  heart mRNAs: increased
[2]; alpha-1A KO mice, subcutaneous infusion 1 week
  BP effects in alpha-1A KO (AKO): absent
[2]; low dose, subcutaneous infusion 1 week, BP measured daily
  average BP: no change
[3]; DOX 25 mg/kg ip single dose, A61603 sc infusion 1 week, vs vehicle
  survival after DOX: markedly improved
[3]; after DOX, end of 1 week
  cell death by apoptosis (caspase 3/7 activity and TUNEL staining): improved
  cell death by necrosis (serum CK, creatine kinase): improved
  indices of myocardial fibrosis: improved
[3]; alpha-1A KO mice after DOX
  protective effect on survival in alpha-1A knockout (KO): lost
[3]; surviving mice, end of 1 week
  heart function by echocardiography (fractional shortening): improved
Neurons in brain slices; N=2, vehicle 5.5±0.5
  ATP levels after H2O2: 8±1 nmol/mg protein
Neurons in brain slices; N=2, vehicle 86±5.3
  number of dead neurons caused by H2O2 (PI positive out of total NeuN positive): 46±0.3
[4]
  volume of dead brain, less with A61603: 50%
